The test concerns PRKACA-PRKAR2A interaction (SmBiT-PRKACA / LgBiT-PRKAR2A), protein kinase A. More on the design: NanoLuc complementation counter-screen in cell extract, PRKACA with PRKAR2A, loss of luminescence, detects NanoLuc interference. The note with it: 0.5 h, 20 µM, inhibitor.
Setting [1] is: counter-screen for NanoLuc interference.
The mark [2] stands for this setting: counter-screen for NanoLuc interference, Inh (PKA).

Results on 59 compounds are retold here after paper PMC9995496, “A screen for MeCP2-TBL1 interaction inhibitors using a luminescence-based assay” (Scientific Reports, 2023).

Where a name gives a salt, the structure may show the parent alone. Read-outs that look alike come from different tables or passages of the source. Peptide text beside a SMILES is read from it. * marks the point of attachment. Cbz = O=C(OCc1ccccc1)*

`COc1cc2c(cc1OC)CC(=O)N(CCCN(C)C[C@H]1Cc3cc(OC)c(OC)cc31)CC2` [UM0142218:01, Ivabradine HCl]: the “Inh (PKA)” value under setting [1] was -0.5336%.
Turning to `COc1ccc(/C=C(\C#N)c2cccnc2)cc1OC` [UM0142745:01, RG 13022], the “Inh (PKA)” value under setting [1] worked out at 13.99%.
As to `Nc1c(CC(=O)O)cccc1C(=O)c1ccccc1` [UM0142341:01, Amfenac Sodium Monohydrate], the “Inh (PKA)” value under setting [1] turned out to be 3.127%.
On to `CN(c1ncccc1CNc1nc(Nc2ccc3c(c2)CC(=O)N3)ncc1C(F)(F)F)S(C)(=O)=O` [UM0142004:01, PF-562271 HCl], for which the “Inh (PKA)” value under setting [2] stood at 48.82%.
Consider `N#Cc1c(Oc2ccc(F)c(NC(=O)Cc3cccc(C(F)(F)F)c3)c2)ccc2nc(NC(=O)C3CC3)sc12` [UM0141960:01, TAK-632], for which the “Inh (PKA)” value under setting [1] is 4.577%.
Same read-out and setting: the value for `COc1ccc(-c2ccc3c(N4CCOC[C@@H]4C)nc(N4CCOC[C@@H]4C)nc3n2)cc1CO` [UM0141954:01, AZD8055] was 6.662%.
As to `CCOC(=O)[C@H](C)C[C@@H](Cc1ccc(-c2ccccc2)cc1)NC(=O)CCC(=O)O` [UM0142165:01, AHU-377(Sacubitril)], the “Inh (PKA)” value under setting [2] turned out to be 9.484%.
In the case of `NS(=O)(=O)c1nn2cc(-c3ccccc3)nc2s1` [UM0142826:01, AEG 3482], under setting [1], the “Inh (PKA)” value was determined as 8.076%.
Still for that read-out and setting: the same measure for `CC1=C(O)C(=O)C=C2C1=CC=C1[C@@]2(C)CC[C@@]2(C)[C@@H]3C[C@](C)(C(=O)O)CC[C@]3(C)CC[C@]12C` [UM0133421:02, Celastrol]: 15.02%; for `Cc1c(CN2CCN(C(=O)[C@H](C)O)CC2)sc2c(N3CCOCC3)nc(-c3cnc(N)nc3)nc12` [UM0142435:01, GDC-0980 (RG7422)]: 0.4199%.
Regarding `CC(=O)O[C@@]12CO[C@@H]1C[C@H](O)[C@@]1(C)C(=O)[C@H](O)C3=C(C)[C@@H](OC(=O)[C@H](O)[C@@H](NC(=O)OC(C)(C)C)c4ccccc4)C[C@@](O)([C@@H](OC(=O)c4ccccc4)[C@H]21)C3(C)C` [UM0141830:01, Docetaxel], the “Inh (PKA)” value under setting [2] came out at 0.7441%.
As for `CCCc1cc(=O)[nH]c(=S)[nH]1` [UM0132755:02, Propylthiouracil], the “Inh (PKA)” value under setting [1] came to 1.031%.
On the same count and under the same terms, the same measure for `CCc1cccc2c3c([nH]c12)C(CC)(CC(=O)O)OCC3` (centres unmarked) [UM0142260:01, Etodolac]: 0.3149%.
As to `C#C[C@]1(OC(C)=O)CC[C@H]2[C@@H]3CCC4=C[C@@H](OC(C)=O)CC[C@@H]4[C@H]3CC[C@@]21C` [UM0134301:02, Ethynodiol diacetate], the “Inh (PKA)” value under setting [1] stood at 16.1%.
For `Nc1nc(NCCNc2ncc(-n3ccnc3)c(-c3ccc(Cl)cc3Cl)n2)ccc1[N+](=O)[O-]` [UM0142026:01, CHIR-98014], the “Inh (PKA)” value under setting [1] is 80.31%.
Still for that read-out and setting: the value for `Nc1ccn(C[C@@H](CO)OCP(=O)(O)O)c(=O)n1` [UM0141909:01, Cidofovir] was -0.4944%.
Still for that read-out and setting: the value for `Nc1ccn([C@@H]2CS[C@H](CO)O2)c(=O)n1` [UM0142052:01, Lamivudine] was -0.4847%.
Still for that read-out and setting: the same measure for `Nc1ncnc2c1ncn2[C@@H]1O[C@H](CO)C[C@H]1O` [UM0142866:01, Cordycepin]: -8.119%; for `CN[C@@H](C)C(=O)N[C@H](C(=O)N1CCC[C@H]1c1nc(C(=O)c2ccc(F)cc2)cs1)C1CCCCC1` [UM0141576:01, LCL161]: 0.904%.
Take `C[C@H](NC(=O)[C@@H](O)c1cc(F)cc(F)c1)C(=O)N[C@@H]1C(=O)N(C)c2ccccc2-c2ccccc21` [UM0141667:01, LY-411575]: the “Inh (PKA)” value under setting [1] was determined as 13.09%.
Still for that read-out and setting: the value for `Nc1cc(F)ccc1NC(=O)/C=C/c1cnn(C/C=C/c2ccccc2)c1` [UM0142135:01, RGFP966] was 7.983%; that for `OCCn1cc(-c2cnc3nnn(Cc4ccc5ncccc5c4)c3n2)cn1` [UM0141870:01, PF-04217903] was 1.023%; that for `CC(=O)O[C@H]1Cc2ccccc2N(C(N)=O)c2ccccc21` [UM0142518:01, Eslicarbazepine acetate] was -0.7534%.
With `CN1C(C(=O)Nc2ccccn2)=C(O)c2sc(Cl)cc2S1(=O)=O` [UM0142259:01, Lornoxicam], the “Inh (PKA)” value under setting [1] was 33.4%.
Turning to `Cn1cc(-c2ccc(F)c(C(F)(F)F)c2)nc1C1CCN(c2ncnc3[nH]ncc23)CC1` [UM0142649:01, LY2584702], under setting [1], the “Inh (PKA)” value was 26.28%.
On to `Cc1sc2c(c1C)C(c1ccc(Cl)cc1)=N[C@@H](CC(=O)Nc1ccc(O)cc1)c1nnc(C)n1-2` [UM0139428:02, OTX-015], for which the “Inh (PKA)” value came out at 7.269.
As for `CN(C)C(=O)COC(=O)Cc1ccc(OC(=O)c2ccc(NC(=N)N)cc2)cc1` [UM0142412:01, Camostat Mesilate], the “Inh (PKA)” value under setting [1] was 0.7864%.
On the same count and under the same terms, the value for `CC(C)CCN1c2nc(Nc3cc(F)c(O)c(F)c3)ncc2N(C)C(=O)C1C` (centres unmarked) [UM0142455:01, BI-D1870] was 64.82%; that for `CC[C@H](C)C(=O)O[C@H]1C[C@@H](C)C=C2C=C[C@H](C)[C@H](CC[C@@H]3C[C@@H](O)CC(=O)O3)[C@H]21` [UM0133001:02, Lovastatin] was 15.39%; that for `CCC(CC)O[C@@H]1C=C(C(=O)O)C[C@H](N)[C@H]1NC(C)=O` [UM0141596:01, Oseltamivir acid] was 1.334%.
Same read-out and setting: the same measure for `Cc1cccc(Nc2ccccc2C(=O)O)c1C` [UM0118444:03, Mefenamic Acid]: 19.56%; for `N#CC(c1ccnc(NCCc2cccnc2)n1)c1nc2ccccc2s1` (centres unmarked) [UM0142696:01, AS601245]: 54.87%; for `C=CC(=O)c1ccc2ccccc2c1` [UM0141853:01, ZM 449829]: 8.312%.
Still for that read-out and setting: the value for `O=C(O)CCCCC(CCSCc1ccccc1)SCc1ccccc1` (centres unmarked) [UM0141790:01, CPI-613] was 31.69%; that for `C[C@@H](Oc1ccc2[nH]nc(/C=C/c3cnn(CCO)c3)c2c1)c1c(Cl)cncc1Cl` [UM0141583:01, LY2874455] was 40.12%.
As to `CS(=O)(=O)N1CCN(Cc2cc3nc(-c4cccc5[nH]ncc45)nc(N4CCOCC4)c3s2)CC1` [UM0130976:02, GDC-0941], the “Inh (PKA)” value under setting [2] amounted to 3.012%.
Consider `COC(=O)c1ccc2c(c1)NC(=O)/C2=C(\Nc1ccc(N(C)C(=O)CN2CCN(C)CC2)cc1)c1ccccc1` [UM0141972:01, Nintedanib (BIBF 1120)], for which the “Inh (PKA)” value under setting [1] is given as 17.71%.
In the case of `C[S+]([O-])c1ccc(-c2nc(-c3ccc(F)cc3)c(-c3ccncc3)[nH]2)cc1` (centres unmarked) [UM0127917:04, SB 203580], the “Inh (PKA)” value under setting [2] is given as 16.51%.
Turning to `C=CCNC1=C2C[C@@H](C)C[C@H](OC)[C@H](O)[C@@H](C)/C=C(\C)[C@H](OC(N)=O)[C@@H](OC)/C=C\C=C(/C)C(=O)NC(=CC1=O)C2=O` [UM0141682:01, 17-AAG (KOS953)], the “Inh (PKA)” value under setting [1] was 8.06%.
Still for that read-out and setting: the same measure for `O=C(NC1CCNCC1)c1n[nH]cc1NC(=O)c1c(Cl)cccc1Cl` [UM0141905:01, AT7519]: 0.5831%; for `O=C1CN(/N=C/c2ccc(-c3ccc([N+](=O)[O-])cc3)o2)C(=O)N1` [UM0134180:02, Dantrolene, sodium salt]: 25.72%; for `CCCC(=O)OCOC(=O)C1=C(C)NC(C)=C(C(=O)OC)C1c1cccc(Cl)c1Cl` (centres unmarked) [UM0142245:01, Clevidipine Butyrate]: 81.79%.
Same read-out and setting: the value for `COc1cc(-n2c(=S)[nH]c3ccccc3c2=O)c(Cl)cc1Cl` [UM0141840:01, Mdivi 1] was 54.95%.
For the compound `c1cnc2cc3c(cc2n1)[C@@H]1CNC[C@H]3C1` [UM0141886:01, Varenicline Tartrate], under setting [1], the “Inh (PKA)” value was 1.343%.
The same measure, in the same setting: the value for `C[C@]12CC[C@H](O)CC1=CC[C@@H]1[C@@H]2CC[C@]2(C)C(n3cnc4ccccc43)=CC[C@@H]12` [UM0142098:01, TOK-001] was 15.03%.
On to `CNC(=O)[C@H](Cc1c[nH]c2ccccc12)NC(=O)[C@@H](CC(=O)NO)CC(C)C` [UM0141679:01, GM 6001], for which, under setting [1], the “Inh (PKA)” value is recorded as -1.568%.
On the same count and under the same terms, the same measure for `Cc1cccc(Nc2ccncc2S(=O)(=O)NC(=O)NC(C)C)c1` [UM0119116:03, Torsemide]: 21.46%; for `CNC(=O)c1c(-c2ccc(F)cc2)oc2cc(N(CCO)S(C)(=O)=O)c(C3CC3)cc12` [UM0141591:01, Nesbuvir]: 3.406%.
The same measure, in the same setting: the same measure for `O=C1Nc2ccc(I)cc2/C1=C/c1cc(Br)c(O)c(Br)c1` [UM0142240:01, GW5074]: 70.55%.
Same read-out and setting: the same measure for `C[C@H]1[C@@H](O)O[C@@H]2O[C@@]3(C)CC[C@H]4[C@H](C)CC[C@@H]1[C@@]24OO3` [UM0142853:01, Dihydroartemisinin]: 0.1421%; for `CC(C)(C)NS(=O)(=O)c1cncc(-c2cc(F)c3nc(N)nn3c2)c1` [UM0141537:01, CZC24832]: 2.566%.
In the case of `C1=N/C2=N/c3ccc(OCCN4CCCC4)c(c3)COC/C=C/COCc3cccc(c3)C(=C1)N2` [UM0142316:01, Pacritinib (SB1518)], the “Inh (PKA)” value under setting [1] is 30.05%.
The same measure, in the same setting: the same measure for `Cc1ccc2nc(N)[nH]c(=O)c2c1Sc1ccncc1` [UM0142685:01, Nolatrexed (AG-337)]: 7.912%; for `O=C1c2ccccc2C(=O)c2oc(-c3cccnc3)nc21` [UM0142199:01, SJB3-019A]: 9.933%; for `COc1ccc(/C=C/C(=O)Nc2ccccc2C(=O)O)cc1OC` [UM0134356:02, Tranilast]: 18.34%.
Same read-out and setting: the value for `C[C@]1(c2nc3c(C(N)=O)cccc3[nH]2)CCCN1` [UM0141654:01, Veliparib dihydrochloride] was 0.673%.
For the compound `CSc1ccc2c(c1)N(CCC1CCCCN1C)c1ccccc1S2` (centres unmarked) [UM0142076:01, Thioridazine HCl], the “Inh (PKA)” value under setting [1] stood at 11.27%.
For `CC(C)[C@H](NC(=O)OCc1ccccc1)C(=O)N[C@H](C=O)Cc1ccccc1` [UM0141833:01, MDL 28170] (Cbz-Val-Phe-aldehyde), the “Inh (PKA)” value under setting [1] was 3.195%.
The same measure, in the same setting: the value for `CN1CCC(=C2c3ccccc3CC(=O)c3sccc32)CC1` [UM0133795:02, Ketotifen Fumarate] was 5.692%.
